System: SK-OV-3 human ovary adenocarcinoma cells
Test: Comparative efficacy study in SK-OV-3 s.c. xenograft SCID mouse model of ovary cancer
Assay type: in vivo, SCID mice
Details: 78th day after tumor inoculation, total dose DOX 23, NP 17, NP-PEG 23 mg/kg
Experimental: Tumor was induced in mice by implanting SK-OV-3 human ovary adenocarcinoma cells s.c. in upper region of back of SCID mice and allowing the tumors to develop to appreciable size over 40 days (30 mm3). The comparative efficacy study of six i.v. injection (day 43, 50, 57, 65, 71 and 78) of 5% glucose, doxorubicin (DOX) 3.8 mg/kg, NP […] and NP-PEG 3.8 mg/kg) was evaluated over 104 days. In this table there are the tumor volume of mice on 78th day after tumor inoculation (data represent mean±SEM of five mice per_group) and body weight of mice on 78th day after tumor inoculation (Data represent mean±STDEV of five mice per group). The table below discloses the comparative efficacy study in SK-OV-3 s.c. xenograft SCID mouse model of ovary cancer.

Compound: COc1cccc2c1C(=O)c1c(O)c3c(c(O)c1C2=O)C[C@@](O)(C(=O)CO)C[C@@H]3O[C@H]1C[C@H](N)[C@H](O)[C@H](C)O1 [DOX]
- Tumor volume (mm^3) (six i.v. injections (day 43-78), mean±SEM of five mice): 294.8 ± 216 mm^3
- Animal weight (six i.v. injections, mean±STDEV of five mice): 22.54 ± 0.77 g

Reference: US9132098B2, “Stable nanocomposition comprising doxorubicin, process for the preparation thereof, its use and pharmaceutical compositions containing it” (BBS Nanotechnology Ltd., priority 2013, dated 2015)
